# Assays:
# atopic dermatitis [1] = assay: Topical treatment of atopic dermatitis lesions in individual subjects (case reports, Examples 11-15); format: in vivo, human; details: topical application to atopic dermatitis lesion
# From the text: The product was applied on an irregular basis with the longest exposure time at night.
# A subject with an atopic dermatitis lesion on the palm of the right hand is presently being treated with the invention containing betamethasone and clemastine hydrogen fumarate.
# atopic dermatitis [2] = details: cited from earlier work
# atopic dermatitis [3] = details: 0.2%, 0.6% and 1.0% creams; 260 patients; cited from earlier work
# [4] = 15, 45, and 120 mg/kg/day orally, 39 weeks; cited from earlier work
# [5] = 192 adults with moderate to severe AD
Compound,outcome of the lesion (atopic dermatitis [1]),days on which corticosteroid medication for flares was used (atopic dermatitis [2]; 24-week treatment period),median time to first flare (atopic dermatitis [2]; [5]) [days],patients who did not experience a flare (atopic dermatitis [2]; [5]) [%],efficacy vs vehicle (atopic dermatitis [3]),finding associated with oral dosing [4]
betamethasone propionate,no improvement,,,,,
CC[C@@H]1/C=C(\C)C[C@H](C)C[C@H](OC)[C@H]2O[C@@](O)(C(=O)C(=O)N3CCCC[C@H]3C(=O)O[C@H](/C(C)=C/[C@@H]3CC[C@H](Cl)[C@H](OC)C3)[C@H](C)[C@@H](O)CC1=O)[C@H](C)C[C@@H]2OC [pimecrolimus],,14.2 % of the days,144,44.8,significantly more effective than vehicle,immunosuppression-related lymphoproliferative disorders

# Reference: patent US20100008868A1, “SUSTAINED REMISSION OF ATOPIC DERMATITIS” (priority 2007, published 2010)
